The values that follow are results of earlier work, collected in patent publication US6346270B1, “Phenytoin therapy” (Alza Corporation, priority 1997, dated 2002).

Each structure is given as a SMILES string.

Turning to `O=C1NC(=O)C(c2ccccc2)(c2ccccc2)N1` [phenytoin], the “solubility in aqueous fluids” value is listed as “poorly soluble”.
